Measured values: US9738653B2, “Fused furans for the treatment of hepatitis C” (BRISTOL-MYERS SQUIBB COMPANY, priority 2013, dated 2017)

Columns and labels:
[1] = target: T1, HCV NS5B genotype 1b (Con1) (Hepatitis C virus genotype 1b, UniProt Q9WMX2); assay: HCV NS5B RdRp enzyme assay; type: biochemical; settings: 1b enzyme, 24 hours at 30° C.
T1 construct: Each untagged protein was expressed with an 18 amino acid C-terminal truncation to enhance the solubility; made in house; host or cells: E. coli BL21(DE3), pET21a
T1 sequence (Q9WMX2 2420-2992): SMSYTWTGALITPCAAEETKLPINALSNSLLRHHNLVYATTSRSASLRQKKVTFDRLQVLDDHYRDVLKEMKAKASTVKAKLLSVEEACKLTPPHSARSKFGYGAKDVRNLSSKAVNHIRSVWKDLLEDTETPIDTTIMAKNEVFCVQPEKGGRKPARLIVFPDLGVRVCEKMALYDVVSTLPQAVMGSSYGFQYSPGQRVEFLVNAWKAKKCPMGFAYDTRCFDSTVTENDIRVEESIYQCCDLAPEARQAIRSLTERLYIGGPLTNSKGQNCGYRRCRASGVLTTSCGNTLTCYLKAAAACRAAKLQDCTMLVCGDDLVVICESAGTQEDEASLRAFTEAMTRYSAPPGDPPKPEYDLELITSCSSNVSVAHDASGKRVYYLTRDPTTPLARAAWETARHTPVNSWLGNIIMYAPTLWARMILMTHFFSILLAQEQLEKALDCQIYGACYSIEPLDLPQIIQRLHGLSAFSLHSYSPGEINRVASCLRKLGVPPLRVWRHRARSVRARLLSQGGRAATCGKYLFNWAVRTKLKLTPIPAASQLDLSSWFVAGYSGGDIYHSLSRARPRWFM
Protocol: The cDNA encoding NS5B proteins of HCV genotype 1b (Con1), a genotype 1b variant with amino acid 316 mutated from cysteine to asparagine, and genotype 2a (JFH-1), were cloned into the pET21a expression vector. Each untagged protein was expressed with an 18 amino acid C-terminal truncation to enhance the solubility. The E. coli competent cell line BL21(DE3) was used for expression of the protein. Cultures were grown at 37° C. for ˜4 hours until the cultures reached an optical density of 2.0 at 600 nm. The cultures were cooled to 20° C. and induced with 1 mM IPTG. Fresh ampicillin was added to a final concentration of 50 μg/mL and the cells were grown overnight at 20° C.
The lysis buffer consisted of 20 mM Tris-HCl, pH 7.4, 500 mM NaCl, 0.5% triton X-100, 1 mM DTT, 1 mM EDTA, 20% glycerol, 0.5 mg/mL lysozyme, 10 mM MgCl2, 15 ug/mL deoxyribonuclease I, and Complete™ protease inhibitor tablets (Roche). After addition of the lysis buffer, frozen cell pellets were resuspended using a tissue homogenizer. To reduce the viscosity of the sample, aliquots of the lysate were sonicated on ice using a microtip attached to a Branson sonicator. The sonicated lysate was centrifuged at 100,000×g for 30 minutes at 4° C. and filtered through a 0.2 μm filter unit (Corning).
The protein was purified using two sequential chromatography steps: Heparin sepharose CL-6B and polyU sepharose 4B. The chromatography buffers were identical to the lysis buffer but contained no lysozyme, deoxyribonuclease I, MgCl2 or protease inhibitor and the NaCl concentration of the buffer was adjusted according to the requirements for charging the protein onto the column. Each column was eluted with a NaCl gradient which varied in length from 5-50 column volumes depending on the column type. […] The enzyme was aliquoted and stored at −80° C.
An on-bead solid phase homogeneous assay was used in a 384-well format to assess NS5B inhibitors (WangY-K, Rigat K, Roberts S, and Gao M (2006) Anal Biochem, 359: 106-111). The biotinylated oligo dT12 primer was captured on streptavidin-coupled imaging beads (GE, RPNQ0261) by mixing primer and beads in 1× buffer and incubating at room temperature for three hours. Unbound primer was removed after centrifugation. The primer-bound beads were resuspended in 3× reaction mix (20 mM Hepes buffer, pH 7.5, dT primer coupled beads, poly A template, ^3H-UTP, and RNAse inhibitor (Promega N2515)). Compounds were serially diluted 1:3 in DMSO and aliquoted into assay plates. Equal volumes (5 μL) of water, 3× reaction mix, and enzyme in 3× assay buffer (60 mM Hepes buffer, pH 7.5, 7.5 mM MgCl2, 7.5 mM KCl, 3 mM DTT, 0.03 mg/mL BSA, 6% glycerol) were added to the diluted compound on the assay plate. Final concentration of components in 384-well assay: 0.36 nM template, 15 nM primer, 0.29 μM ^3H-UTP (0.3 μCi, 1.6 U/μL RNAse inhibitor, 7 nM NS5B enzyme, 0.01 mg/mL BSA, 1 mM DTT, and 0.33 μg/μL beads, 20 mM Hepes buffer, pH 7.5, 2.5 mM MgCl2, 2.5 mM KCl, and 0.1% DMSO.
Reactions were allowed to proceed for 24 hours at 30° C. and terminated by the addition of 50 mM EDTA (5 μL). After incubating for at least 15 minutes, plates were read on an Amersham LEADseeker multimodality imaging system.
IC50 values for compounds were determined using ten different [I]. IC50 values were calculated from the inhibition using the four-parameter logistic formula y=A+((B−A)/(1+((C/x)^D))), where A and B denote minimal and maximal % inhibition, respectively, C is the IC50, D is hill slope and x represents compound concentration.

[2] = test system: genotype 1b (Con-1) HCV replicon in Huh-7 cells; assay: HCV replicon luciferase assay; type: cell-based; settings: 1b replicon, Renilla luciferase, 3 days incubation
Protocol: The cell lines used to evaluate compounds consist of a human hepatocyte derived cell line (Huh-7) that constitutively expresses a genotype 1b (Con-1) HCV replicon or a genotype 1b (Con-1) HCV replicon with an asparagine replacing the cysteine at amino acid 316, or a genotype 2a (JFH-1) replicon, containing a Renilla luciferase reporter gene. These cells were maintained in Dulbecco's modified Eagle medium (DMEM) containing 10% FBS, 100 U/mL penicillin/streptomycin and 1.0 mg/mL G418.
To evaluate compound efficacy, titrated compounds were transferred to sterile 384-well tissue culture treated plates, and the plates were seeded with HCV replicon cells ([…] at a density of 2.4×10^3 cells/well) in DMEM containing 4% FBS (final DMSO concentration at 0.5%). After 3 days incubation at 37° C., cells were analyzed for Renilla Luciferase activity using the EnduRen substrate (Promega cat #E6485) according to the manufacturer's directions. Briefly, the EnduRen substrate was diluted in DMEM and then added to the plates to a final concentration of 7.5 μM. The plates were incubated for at least 1 h at 37° C. then read on a Viewlux Imager (PerkinElmer) using a luminescence program. The 50% effective concentration (EC50) was calculated using the four-parameter logistic formula noted above.

[3] = test system: HCV; settings: cited from earlier work
[4] = test system: HCV; settings: combination therapy; cited from earlier work

Molecule | IC50 [1] [nM] | EC50 ([2]; Hepatitis C virus, Huh-7, 72 h) [nM] | also measured
CNC(=O)c1c(-c2ccc(F)cc2)oc2nc(NCC(F)F)c(-c3ccc(OC)c(C(=O)NC45CC(C4)C5)c3)cc12 | 8.87 | 6.23 | 
CCCc1nc2oc(-c3ccc(F)cc3)c(C(=O)NC)c2cc1-c1cccc(C(=O)NC23CC(C2)C3)c1 | 7.73 | 5.26 | 
CNC(=O)c1c(-c2ccc(F)cc2)oc2nc(NCC(F)F)c(-c3ccc(F)c(C(=O)NC45CC(C4)C5)c3)cc12 | 6.13 | 2.13 | 
CCCc1cc2oc(-c3ccc(F)cc3)c(C(=O)NC)c2cc1-c1cccc(C(=O)NC23CC(C2)C3)c1 | 20 | 5.82 | 
CNC(=O)c1c(-c2ccc(F)cc2)oc2cc(COC)c(-c3cccc(C(=O)NC45CC(C4)C5)c3)c(F)c12 | 210 | 7.88 | 
CCCc1nc2oc(-c3ccc(F)cc3)c(C(=O)NC)c2cc1-c1ccc(F)c(C(=O)NC23CC(C2)C3)c1 | 5.65 | 5.16 | 
CNC(=O)c1c(-c2ccc(F)cc2)oc2nc(NCC(F)F)c(-c3cccc(C(=O)NC45CC(C4)C5)c3)cc12 | 8.63 | 4.3 | 
CNC(=O)c1c(-c2ccc(F)cc2)oc2nc(CCC(F)(F)F)c(-c3cnc(OC)c(C(=O)NC45CC(C4)C5)c3)cc12 | 3.65 | 6.48 | 
CNC(=O)c1c(-c2ccc(F)cc2)oc2nc(NCC(F)(F)F)c(-c3cnc(OC)c(C(=O)NC45CC(C4)C5)c3)cc12 | 6.54 | 5.79 | 
CCN(c1nc2oc(-c3ccc(F)cc3)c(C(=O)NC)c2cc1-c1cccc(C(=O)NC23CC(C2)C3)c1)S(C)(=O)=O | 6.8 | 2.85 | 
CNC(=O)c1c(-c2ccc(F)cc2)oc2cc(CC(N)=O)c(-c3cccc(C(=O)NC45CC(C4)C5)c3)cc12 | 40 | 20 | 
CNC(=O)c1c(-c2ccc(F)cc2)oc2cc(CCCO)c(-c3cccc(C(=O)NC45CC(C4)C5)c3)cc12 | 9.56 | 3.86 | 
CNC(=O)c1c(-c2ccc(F)cc2)oc2cc(CCCF)c(-c3cccc(C(=O)NC45CC(C4)C5)c3)cc12 | 3.29 | 3.33 | 
CNC(=O)c1c(-c2ccc(F)cc2)oc2cc(CC(=O)OC)c(-c3cccc(C(=O)NC45CC(C4)C5)c3)cc12 | 8.01 | 8.19 | 
CNC(=O)c1c(-c2ccc(F)cc2)oc2cc(CCC(F)F)c(-c3cccc(C(=O)NC45CC(C4)C5)c3)cc12 | 7.19 | 3.89 | 
CNC(=O)c1c(-c2ccc(F)cc2)oc2cc(NCC(F)(F)F)c(-c3ccc(OC)c(C(=O)NC45CC(C4)C5)c3)cc12 | 7.17 | 5.08 | 
CNC(=O)c1c(-c2ccc(F)cc2)oc2cc(N(CCO)S(C)(=O)=O)c(C3CC3)cc12 [HCV-796] |  |  | hepatic toxicity ([3]; extended dosing of the combination regimens with interferon and ribavirin): hepatic toxicity observed; HCV RNA levels in patients ([3]; patients, single agent): showed an ability to reduce HCV RNA levels in patients
CCC(C)c1cc2oc(-c3ccc(F)cc3)c(C(=O)NC)c2cc1-c1cccc(C(=O)NC23CC(C2)C3)c1 (stereo not drawn) [drawing 294] | 10 |  | EC50 [2]: 10 nM
CCC(C)c1cc2oc(-c3ccc(F)cc3)c(C(=O)NC)c2cc1-c1cccc(C(=O)NC23CC(C2)C3)c1 (stereo not drawn) [drawing 304] | 5.87 | 10 | 
alpha-interferon and ribavirin |  |  | sustained efficacy, patients [4]: 40%
